In US20240401144A2, “PRIMER-PROBE COMPOSITION, KIT, AND DETECTION METHOD” (ASCENTAWITS PHARMACEUTICALS, LTD., priority 2021, published 2024):

Experiments:
Format in all cases: cell-based
[1] = system: ALL cell lines; experiment: Ex vivo cytotoxicity in ALL cell lines (summary); conditions: Homo sapiens
Description: (§1) Leukemia cell lines were suspended in RPMI medium supplemented with FBS (Biosera), while ALL PDX cells were cultured in QBSF medium (Quality Biological Inc.,) supplemented with Flt-3 ligand (20 ng/ml, BioNovus Life Sciences) or IL7 (10-20 ng/ml, Jomar Life Research). Cells were inoculated according to the optimal cell density and incubated for 3h or overnight (37° C., 5% CO2). PDX cells and leukemia cell lines were treated with OBI-3424 ([…]) or medium control for 48 or 72 h, respectively. Viability was determined using Alamar Blue reduction assay or Cell Titer-Glo Luminescent Cell Viability Assay (Promega). The half-maximal inhibitory concentration (IC50) was used to calculate the interpolation of nonlinear regression curves by GraphPad Prism 7 software.
(§2) The expression levels of AKR1C3 protein was determined by Western blot analysis. The ex vivo cytotoxicity of OBI-3424 was determined using CellTiter-Glo assay and calculated as 50% maximum inhibitory concentration (IC50).

[2] = system: Jurkat, clone E6-1 cell line; experiment: Ex vivo cytotoxicity assay, leukemia cell lines; conditions: Homo sapiens
Description: as §1, §2

[3] = system: Jurkat cell line; experiment: Ex vivo cytotoxicity assay, leukemia cell lines; conditions: Homo sapiens
Description: as §1, §2

[4] = system: P116 cell line; experiment: Ex vivo cytotoxicity assay, leukemia cell lines; conditions: Homo sapiens
Description: as §1, §2

[5] = system: TALL-1 cell line; experiment: Ex vivo cytotoxicity assay, leukemia cell lines; conditions: Homo sapiens
Description: as §1, §2

[6] = system: P31/FUJ cell line; experiment: Ex vivo cytotoxicity assay, leukemia cell lines; conditions: Homo sapiens; Table 5: P31/FUJ, AML, 72 h; AKR1C3 expression Low
Description: as §1, §2

[7] = system: MOLT-4 cell line; experiment: Ex vivo cytotoxicity assay, leukemia cell lines; conditions: Homo sapiens
Description: as §1, §2

[8] = system: SUP-T1 cell line; experiment: Ex vivo cytotoxicity assay, leukemia cell lines; conditions: Homo sapiens
Description: as §1, §2

## C[C@H](OP(=O)(N1CC1)N1CC1)c1ccc([N+](=O)[O-])c(Oc2cccc(C(=O)N(C)C)c2)c1 [OBI-3424]
[1]; 6 types of cell lines expressing high (strong) levels of AKR1C3
  IC50: 3 to 30 nM
[1]; cell lines with medium AKR1C3 expression levels
  IC50: 3 to 84 nM
[2]; Table 4: Jurkat, Clone E6-1, T-ALL (child), AKR1C3 expression Medium, CellTiter-Glo
  IC50: 24 nM
[2]; Table 5: Jurkat, clone E6-1, T-ALL, 72 h, AKR1C3 expression Low
  IC50: 24 nM
[3]; Table 4: Jurkat, T-ALL (child), AKR1C3 expression Medium, CellTiter-Glo
  IC50: 40 nM
[3]; Table 5: Jurkat, T-ALL (pediatric), 72 h, AKR1C3 expression Low
  IC50: 40 nM
[4]; Table 4: P116, T-ALL (Jurkat mutant), AKR1C3 expression Medium, CellTiter-Glo
  IC50: 84 nM
[4]; Table 5: P116, Jurkat mutant, 72 h, AKR1C3 expression Low
  IC50: 84 nM
[5]; Table 4: TALL-1, T-ALL (child), AKR1C3 expression Strong, CellTiter-Glo
  IC50: 30 nM
[5]; Table 5: TALL-1, T-ALL (pediatric), 72 h, AKR1C3 expression Medium
  IC50: 30 nM
[6]
  IC50: > 1000 nM
[7]; Table 4: MOLT-4, T-ALL, AKR1C3 expression Strong, CellTiter-Glo
  IC50: 10 nM
[7]; Table 5: MOLT-4, T-ALL, 72 h, AKR1C3 expression Medium
  IC50: 10 nM
[8]; Table 4: SUP-T1, T-ALL (child), AKR1C3 expression Strong, CellTiter-Glo
  IC50: 3 nM
[8]; Table 5: SUP-T1, T-ALL (pediatric), 72 h, AKR1C3 expression Medium
  IC50: 3 nM
